Source: ChEMBL document CHEMBL1201862, “PubChem BioAssay data set” (2004)
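How tested: cells in 96-well plates exposed to compound for 48 hours at five concentrations. At the GI50, growth is halved.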 The source made the active and inactive calls. No stated cut-off is given here; in the data, active = GI50 up to about 1.1 µM and inactive = higher.

Columns and labels:
Experiment in all cases: NCI anticancer screen, dose series, 48 h
U-251 = test system: U-251
RPMI-8226 = test system: RPMI-8226
OVCAR-3 = test system: OVCAR-3
SF-539 = test system: SF-539
CAKI-1 = test system: CAKI-1
SK-MEL-2 = test system: SK-MEL-2
SF-295 = test system: SF-295
OVCAR-5 = test system: OVCAR-5
SF-268 = test system: SF-268
MDA-MB-435 = test system: MDA-MB-435
RXF 393 = test system: RXF 393
TK-10 = test system: TK-10
OVCAR-8 = test system: OVCAR-8
HT-29 = test system: HT-29
Malme-3M = test system: Malme-3M
SK-MEL-5 = test system: SK-MEL-5
Hs-578T = test system: Hs-578T
LOX IMVI = test system: LOX IMVI
UACC-257 = test system: UACC-257
M14 = test system: M14
CCRF-CEM = test system: CCRF-CEM
UACC-62 = test system: UACC-62
NCI-H460 = test system: NCI-H460
SK-OV-3 = test system: SK-OV-3
SK-MEL-28 = test system: SK-MEL-28
NCI/ADR-RES = test system: NCI/ADR-RES
K562 = test system: K562
NCI-H23 = test system: NCI-H23
PC-3 = test system: PC-3
MOLT-4 = test system: MOLT-4
SR = test system: SR
MCF7 = test system: MCF7
MDA-MB-231 = test system: MDA-MB-231
DU-145 = test system: DU-145
HCC 2998 = test system: HCC 2998
SN12C = test system: SN12C
ACHN = test system: ACHN
786-0 = test system: 786-0
EKVX = test system: EKVX
KM12 = test system: KM12
A549 = test system: A549
MDA-N = test system: MDA-N
HL-60 = test system: HL-60
A498 = test system: A498
SW-620 = test system: SW-620
OVCAR-4 = test system: OVCAR-4
HOP-92 = test system: HOP-92
NCI-H226 = test system: NCI-H226
COLO 205 = test system: COLO 205
IGROV-1 = test system: IGROV-1
HCT-116 = test system: HCT-116
HCT-15 = test system: HCT-15
SNB-19 = test system: SNB-19
T47D = test system: T47D
NCI-H522 = test system: NCI-H522

For `CC1=NN(c2ccccc2)C(=O)/C1=C/c1ccc(O)cc1`, the GI50 (U-251) was > 100 µM (inactive), the GI50 (RPMI-8226) was 61.8 µM (inactive) and the GI50 (OVCAR-3) was > 100 µM (inactive). The GI50 (SF-539) was > 100 µM (inactive), the GI50 (CAKI-1) was > 100 µM (inactive) and the GI50 (SK-MEL-2) was > 100 µM (inactive). For the same molecule, the GI50 (SF-295) was > 100 µM (inactive), the GI50 (OVCAR-5) was > 100 µM (inactive) and the GI50 (SF-268) was > 100 µM (inactive). The GI50 (MDA-MB-435) was > 100 µM (inactive), the GI50 (RXF 393) was > 100 µM (inactive) and the GI50 (TK-10) was > 100 µM (inactive). For the same molecule, the GI50 (OVCAR-8) was > 100 µM (inactive), the GI50 (HT-29) was > 100 µM (inactive) and the GI50 (Malme-3M) was > 100 µM (inactive). For the same molecule, the GI50 (SK-MEL-5) was > 100 µM (inactive), the GI50 (Hs-578T) was > 100 µM (inactive) and the GI50 (LOX IMVI) was > 100 µM (inactive). The GI50 (UACC-257) was > 100 µM (inactive), the GI50 (M14) was > 100 µM (inactive) and the GI50 (CCRF-CEM) was > 100 µM (inactive). The GI50 (UACC-62) was > 100 µM (inactive), the GI50 (NCI-H460) was > 100 µM (inactive) and the GI50 (SK-OV-3) was > 100 µM (inactive). The GI50 (SK-MEL-28) was > 100 µM (inactive), the GI50 (NCI/ADR-RES) was > 100 µM (inactive) and the GI50 (K562) was > 100 µM (inactive). For the same molecule, the GI50 (NCI-H23) was > 100 µM (inactive), the GI50 (PC-3) was > 100 µM (inactive) and the GI50 (MOLT-4) was > 100 µM (inactive). For the same molecule, the GI50 (SR) was 84.3 µM (inactive), the GI50 (MCF7) was > 100 µM (inactive) and the GI50 (MDA-MB-231) was > 100 µM (inactive). The GI50 (DU-145) was > 100 µM (inactive), the GI50 (HCC 2998) was > 100 µM (inactive) and the GI50 (SN12C) was > 100 µM (inactive). For the same molecule, the GI50 (ACHN) was > 100 µM (inactive), the GI50 (786-0) was > 100 µM (inactive) and the GI50 (EKVX) was > 100 µM (inactive). For the same molecule, the GI50 (KM12) was > 100 µM (inactive), the GI50 (A549) was > 100 µM (inactive) and the GI50 (MDA-N) was > 100 µM (inactive). The GI50 (HL-60) was > 100 µM (inactive), the GI50 (A498) was > 100 µM (inactive) and the GI50 (SW-620) was > 100 µM (inactive). For the same molecule, the GI50 (OVCAR-4) was > 100 µM (inactive), the GI50 (HOP-92) was > 100 µM (inactive) and the GI50 (NCI-H226) was > 100 µM (inactive). For the same molecule, the GI50 (COLO 205) was > 100 µM (inactive), the GI50 (IGROV-1) was > 100 µM (inactive) and the GI50 (HCT-116) was > 100 µM (inactive). The GI50 (HCT-15) was greater than 100 µM, the GI50 (SNB-19) was > 100 µM (inactive) and the GI50 (T47D) was > 100 µM (inactive).
For `CCn1ncc(N=O)c1N`, the GI50 (RPMI-8226) was > 100 µM (inactive), the GI50 (SF-539) was > 100 µM (inactive) and the GI50 (SF-268) was > 100 µM (inactive). The GI50 (NCI-H522) was > 100 µM (inactive), the GI50 (Hs-578T) was > 100 µM (inactive) and the GI50 (M14) was > 100 µM (inactive). The GI50 (CCRF-CEM) was > 100 µM (inactive), the GI50 (K562) was > 100 µM (inactive) and the GI50 (NCI-H23) was > 100 µM (inactive). The GI50 (KM12) was > 100 µM (inactive), the GI50 (A549) was > 100 µM (inactive) and the GI50 (MDA-N) was > 100 µM (inactive). For the same molecule, the GI50 (COLO 205) was > 100 µM (inactive), the GI50 (IGROV-1) was > 100 µM (inactive) and the GI50 (HCT-116) was > 100 µM (inactive). For the same molecule, the GI50 (SNB-19) was > 100 µM (inactive).
